Results on 5 compounds are retold here after patent US20250009755A1, “COMPOSITIONS AND METHODS FOR THE TREATMENT OF OCULAR DISEASES AND INJURIES” (Ohio State Innovation Foundation, priority 2021, published 2025).

The target in one data set is T1, C3 (Homo sapiens, UniProt P01024).
T1 construct: host or cells: endogenous C3 of study patients
As to conditions: intravitreal injection, Phase 2 FILLY; cited from earlier work.

The conditions of data set [1]: cited from earlier work.
The next data set relates to VEGF-A. As to conditions: wet AMD patients; cited from earlier work.
Chain of VEGF-A (P15692 207-311 limits assumed): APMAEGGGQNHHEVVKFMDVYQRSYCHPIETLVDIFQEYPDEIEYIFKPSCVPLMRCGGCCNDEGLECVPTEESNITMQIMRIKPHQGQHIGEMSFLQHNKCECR
A further data set concerns the target T2, C5 (Homo sapiens, UniProt P01031).
T2 construct: host or cells: endogenous C5 of study patients
As to conditions: intravitreal injections, Phase 2/3 GATHER1; cited from earlier work.

For a further data set, the system named is HUVECs. The data set can be described thus: H2O2-induced tubule formation in HUVECs co-cultured with ARPE-19 cells (Calcein AM). As to conditions: 200 μM H2O2; 10 μg/mL NPs or 5 μg/mL bevacizumab; vs positive control. The format is cell-based, human. The procedure: Under oxidative stress induced by 200 μM H2O2, ARPE-19 cells were co-cultured with human umbilical vein endothelial cells (HUVECs) to investigate the influence of H2O2 and drug-loaded PDA NPs on the development of the three-dimensional capillary structure. Exposure to H2O2 induced secretion of VEGF and tubule formation. Cells were then incubated with 5 μg/mL native bevacizumab control or 10 μg/mL NPs with and without anti-VEGF. […] The reaction of PDA NPs with H2O2 also simultaneously degraded (FIG. 6B) and triggered drug release (FIG. 7), favorable for spatiotemporal control of release at disease sites.

T1 sequence (P01024 23-667 limits assumed): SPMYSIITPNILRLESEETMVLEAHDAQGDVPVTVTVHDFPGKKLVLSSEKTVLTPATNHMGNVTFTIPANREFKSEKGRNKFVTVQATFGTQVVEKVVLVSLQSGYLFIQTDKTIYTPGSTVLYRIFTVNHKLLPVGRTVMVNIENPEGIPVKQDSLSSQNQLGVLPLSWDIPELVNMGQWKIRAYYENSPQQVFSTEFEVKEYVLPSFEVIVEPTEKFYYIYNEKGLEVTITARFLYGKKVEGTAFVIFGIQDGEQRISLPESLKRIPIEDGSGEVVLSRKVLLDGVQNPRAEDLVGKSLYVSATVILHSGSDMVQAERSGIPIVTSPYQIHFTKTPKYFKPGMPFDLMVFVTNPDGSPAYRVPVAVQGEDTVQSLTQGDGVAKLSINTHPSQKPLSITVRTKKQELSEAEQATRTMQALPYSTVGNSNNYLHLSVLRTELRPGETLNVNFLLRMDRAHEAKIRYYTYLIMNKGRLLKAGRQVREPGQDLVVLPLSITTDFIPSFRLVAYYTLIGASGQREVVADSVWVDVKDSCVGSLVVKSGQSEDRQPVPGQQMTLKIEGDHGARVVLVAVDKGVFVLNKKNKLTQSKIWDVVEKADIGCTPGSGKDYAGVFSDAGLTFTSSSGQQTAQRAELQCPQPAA
T1 sequence (P01024 672-1663 partner limits assumed): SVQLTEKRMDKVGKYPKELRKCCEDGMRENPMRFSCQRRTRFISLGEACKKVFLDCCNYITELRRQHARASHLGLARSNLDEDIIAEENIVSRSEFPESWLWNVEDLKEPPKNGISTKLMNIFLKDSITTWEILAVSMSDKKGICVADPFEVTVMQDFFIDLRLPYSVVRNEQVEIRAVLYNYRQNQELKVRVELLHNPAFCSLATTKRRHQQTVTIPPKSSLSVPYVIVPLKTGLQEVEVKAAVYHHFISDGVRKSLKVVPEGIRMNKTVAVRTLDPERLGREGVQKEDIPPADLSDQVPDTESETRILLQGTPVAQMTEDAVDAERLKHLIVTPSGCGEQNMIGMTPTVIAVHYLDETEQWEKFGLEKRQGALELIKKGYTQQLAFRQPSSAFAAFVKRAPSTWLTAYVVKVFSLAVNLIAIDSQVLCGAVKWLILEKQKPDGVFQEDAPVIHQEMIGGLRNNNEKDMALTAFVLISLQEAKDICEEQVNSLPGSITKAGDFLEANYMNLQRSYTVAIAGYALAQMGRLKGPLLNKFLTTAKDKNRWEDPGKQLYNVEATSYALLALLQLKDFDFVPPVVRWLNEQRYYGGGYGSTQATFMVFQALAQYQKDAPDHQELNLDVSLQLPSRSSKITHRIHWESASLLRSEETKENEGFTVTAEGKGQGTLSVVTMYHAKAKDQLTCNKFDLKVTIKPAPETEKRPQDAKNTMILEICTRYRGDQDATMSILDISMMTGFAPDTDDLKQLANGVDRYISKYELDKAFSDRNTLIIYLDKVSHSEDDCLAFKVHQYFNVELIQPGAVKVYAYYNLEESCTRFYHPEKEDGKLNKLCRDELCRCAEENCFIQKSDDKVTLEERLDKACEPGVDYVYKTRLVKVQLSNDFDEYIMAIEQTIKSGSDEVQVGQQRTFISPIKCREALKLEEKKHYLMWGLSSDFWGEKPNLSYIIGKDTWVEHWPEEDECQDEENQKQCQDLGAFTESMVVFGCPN
T2 sequence (P01031 19-673 limits assumed): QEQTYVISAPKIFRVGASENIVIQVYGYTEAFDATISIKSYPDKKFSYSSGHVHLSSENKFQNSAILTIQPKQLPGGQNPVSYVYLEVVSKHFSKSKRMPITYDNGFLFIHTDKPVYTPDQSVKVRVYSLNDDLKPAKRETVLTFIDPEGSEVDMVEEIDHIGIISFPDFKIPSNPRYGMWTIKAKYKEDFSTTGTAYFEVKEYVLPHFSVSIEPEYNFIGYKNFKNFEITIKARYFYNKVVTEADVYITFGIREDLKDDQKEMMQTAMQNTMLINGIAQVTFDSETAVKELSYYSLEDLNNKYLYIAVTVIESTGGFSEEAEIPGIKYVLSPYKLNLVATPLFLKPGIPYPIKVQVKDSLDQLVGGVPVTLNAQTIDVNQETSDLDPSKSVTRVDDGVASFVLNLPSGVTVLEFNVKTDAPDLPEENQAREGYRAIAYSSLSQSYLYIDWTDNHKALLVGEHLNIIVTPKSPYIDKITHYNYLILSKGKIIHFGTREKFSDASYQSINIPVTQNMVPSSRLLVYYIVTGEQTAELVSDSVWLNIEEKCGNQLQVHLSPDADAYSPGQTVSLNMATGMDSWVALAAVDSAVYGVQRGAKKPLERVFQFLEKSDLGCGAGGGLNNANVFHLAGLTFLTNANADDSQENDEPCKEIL
T2 sequence (P01031 678-1676 limits assumed): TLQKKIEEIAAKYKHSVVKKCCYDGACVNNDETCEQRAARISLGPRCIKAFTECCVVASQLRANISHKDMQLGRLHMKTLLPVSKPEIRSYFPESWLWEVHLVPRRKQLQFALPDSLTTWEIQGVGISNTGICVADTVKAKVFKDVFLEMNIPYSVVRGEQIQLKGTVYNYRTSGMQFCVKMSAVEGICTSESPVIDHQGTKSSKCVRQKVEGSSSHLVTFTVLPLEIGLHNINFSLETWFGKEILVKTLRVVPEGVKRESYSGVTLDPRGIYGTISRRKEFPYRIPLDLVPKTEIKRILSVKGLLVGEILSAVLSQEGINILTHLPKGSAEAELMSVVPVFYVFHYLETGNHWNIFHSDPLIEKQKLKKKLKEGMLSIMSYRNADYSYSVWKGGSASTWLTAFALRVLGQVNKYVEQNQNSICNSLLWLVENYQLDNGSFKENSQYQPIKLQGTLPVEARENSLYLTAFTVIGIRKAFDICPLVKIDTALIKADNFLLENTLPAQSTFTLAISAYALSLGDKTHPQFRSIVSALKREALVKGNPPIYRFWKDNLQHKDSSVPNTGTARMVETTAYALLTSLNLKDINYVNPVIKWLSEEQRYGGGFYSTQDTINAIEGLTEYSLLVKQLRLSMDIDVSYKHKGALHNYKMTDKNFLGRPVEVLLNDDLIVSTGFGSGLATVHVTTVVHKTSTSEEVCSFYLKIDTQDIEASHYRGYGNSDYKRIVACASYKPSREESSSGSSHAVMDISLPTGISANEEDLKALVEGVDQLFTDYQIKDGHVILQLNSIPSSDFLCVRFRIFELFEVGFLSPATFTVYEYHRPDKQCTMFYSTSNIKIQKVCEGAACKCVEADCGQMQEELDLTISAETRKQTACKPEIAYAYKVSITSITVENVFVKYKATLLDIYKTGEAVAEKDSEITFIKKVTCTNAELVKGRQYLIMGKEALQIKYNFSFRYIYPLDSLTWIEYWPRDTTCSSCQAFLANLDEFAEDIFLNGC

Turning to pegcetacoplan, the GA growth rate entry on C3 is “significantly reduced GA growth rate”.

As to `C=CC1=C(C)c2cc3[n-]c(cc4[n-]c(cc5nc(cc1n2)C(C)=C5C=C)c(C)c4CCC(=O)O)c(CCC(=O)O)c3C.[Fe+2]` [Heme], the aqueous solubility entry in data set [1] is “insoluble in aqueous solution”.

On to “RAN: monoclonal antibody fragment with strong affinity to VEGF-A”, for which the “patients with improved vision” value in the data set on VEGF-A is 29%-40%.

Regarding avacincaptad pegol, the GA growth rate entry on C5 was “significantly reduced GA growth rate”.

“bevacizumab: a monoclonal antibody that inhibits VEGF-A”: the “tubule formation in HUVECs” value in the data set with HUVECs is on record as “significant decrease”.
